From PubChem BioAssay (NCI)
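These data come from cells grown in 96-well plates and exposed to compound for 48 hours at five concentrations. TGI: concentration producing complete growth inhibition.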

Key:
Assay in all cases: growth of human tumour cells (NCI), 48 h
[1] = test system: 786-0 renal
[2] = test system: A549 NSCLC
[3] = test system: ACHN renal
[4] = test system: CAKI-1 renal
[5] = test system: COLO 205 colon
[6] = test system: EKVX NSCLC
[7] = test system: HCT-116 colon
[8] = test system: HL-60(TB) leukemia
[9] = test system: HS 578T breast
[10] = test system: HT29 colon
[11] = test system: IGROV1 ovarian
[12] = test system: K-562 leukemia
[13] = test system: LOX IMVI melanoma
[14] = test system: MALME-3M melanoma
[15] = test system: MDA-MB-231 breast
[16] = test system: OVCAR-8 ovarian
[17] = test system: SF-268 CNS
[18] = test system: SF-539 CNS
[19] = test system: SNB-19 CNS
[20] = test system: U251 CNS

| SMILES | TGI [1] [µM] | TGI [2] [µM] | TGI [3] [µM] | TGI [4] [µM] | TGI [5] [µM] | TGI [6] [µM] | TGI [7] [µM] | TGI [8] [µM] | TGI [9] [µM] | TGI [10] [µM] | TGI [11] [µM] | TGI [12] [µM] | TGI [13] [µM] | TGI [14] [µM] | TGI [15] [µM] | TGI [16] [µM] | TGI [17] [µM] | TGI [18] [µM] | TGI [19] [µM] | TGI [20] [µM] |
| --- | --- | --- | --- | --- | --- | --- | --- | --- | --- | --- | --- | --- | --- | --- | --- | --- | --- | --- | --- | --- |
| COc1cc(/C=C/C(=N\NC(N)=S)c2sc(NNC(C)=O)nc2C)ccc1O | > 100 | > 100 | > 100 | > 100 | > 100 | > 100 | > 100 | > 100 | > 100 | > 100 | > 100 | > 100 | > 100 | > 100 | > 100 | > 100 | > 100 | > 100 | > 100 | > 100 |
| Cc1cc(C)c2c(n1)S(=O)(=O)N(CCCN1CCN(c3cccc(Cl)c3)CC1)/C(=C(\O)c1ccc(Br)cc1)C2=O | 38.2 | 71 | > 100 | 49.4 | 29.8 | 57 | 52 | 45.4 | > 100 | 98.8 | > 100 | > 100 | > 100 | > 100 | > 100 | > 100 | > 100 | 95.6 | 98.4 | > 100 |
| COC(=O)C(=O)C(C(=O)OC)C(=O)C(=O)Nc1c(Cl)cc([N+](=O)[O-])cc1Cl (centres undefined) | > 100 | > 100 | > 100 | > 100 |  | > 100 | > 100 | > 100 | > 100 | > 100 | > 100 | > 100 | > 100 | > 100 | > 100 | > 100 | > 100 | > 100 | > 100 | > 100 |
| O=C(NC1C/C(=N/O)c2c(Br)sc(Br)c21)C(F)(F)F (centres undefined) | 40.4 | 96.9 | > 100 | 58 | > 100 | > 100 | 30.9 | > 100 | 36.3 | > 100 | > 100 | 38.4 | > 100 | > 100 | 30.9 | 63.2 | > 100 | 38.9 | > 100 | 39.2 |
| O=S(=O)(/N=C(\NO)Nc1ccc(Cl)cc1)c1cc2ccccc2s1 | 32.3 | 38.1 | 30.5 | 34.7 | 29.6 | 26 | 30.2 | 45.3 | 37.5 | 35 | 28.7 | > 100 | 33.5 | 29.6 | 34.8 | 30.7 | 29.2 | 40.2 | 31.2 | 29.1 |
| C(=C/c1nnnn1-c1ccccc1)/Nc1ccccc1 | > 100 | > 100 | > 100 | > 100 | > 100 | > 100 | 95.7 | > 100 | > 100 | > 100 | > 100 | > 100 | > 100 | > 100 | > 100 | > 100 | > 100 | 64.7 | 96.8 | > 100 |
| CCOC(=O)NN(C(=O)OCC)C(C(=O)c1ccccc1)N(NC(=O)OCC)C(=O)OCC | > 100 | > 100 | > 100 | > 100 | > 100 | > 100 | > 100 | > 100 | > 100 | > 100 | > 100 | > 100 | > 100 | > 100 | > 100 | > 100 | > 100 | > 100 | > 100 | > 100 |
| CN(C)CC1CCC/C(=C\c2ccc(OC(=O)/C=C/c3ccc(Cl)cc3)cc2)C1=O (centres undefined) | 3.05 | 21.6 | 5.73 | 5.12 | 2.79 | 15.2 | 11 | 3.22 | 24.6 | 7.12 | 3.35 | 4.04 | 9.39 | 16.3 | 21 | 19.3 | 12.4 | 5.79 | 13.9 | 9.97 |
| O=C(CC(C(=O)c1cccs1)c1ccsc1)c1ccc(Cl)s1 (centres undefined) | > 100 | > 100 | > 100 | > 100 | > 100 | > 100 | > 100 | > 100 | > 100 | > 100 | > 100 | > 100 | > 100 | > 100 | > 100 | > 100 | > 100 | > 100 | > 100 | > 100 |
| C=CCOC(=O)Cn1ccc(=O)[nH]c1=O | > 100 | > 100 | > 100 | > 100 | > 100 | > 100 | > 100 | > 100 | > 100 | > 100 | > 100 | > 100 | > 100 | > 100 | > 100 | > 100 | > 100 | > 100 | > 100 | > 100 |
| CN1C(=O)C23CCCC2CC1(c1ccccc1)S3 (centres undefined) | > 100 | > 100 | > 100 | > 100 | > 100 | > 100 | > 100 | > 100 | > 100 | > 100 | > 100 | > 100 | > 100 | > 100 | > 100 | > 100 | > 100 | > 100 | > 100 | > 100 |
| O=C(O)c1nn(-c2ccccc2)nc1-c1nn(-c2ccccc2)nc1C(=O)O | > 100 | > 100 | > 100 | > 100 | > 100 | > 100 | > 100 | > 100 | > 100 | > 100 | > 100 | > 100 | > 100 | > 100 | > 100 | > 100 | > 100 | > 100 | > 100 | > 100 |
| CC[C@]12C=CCN3CC[C@@]4(c5cc(Br)c(OC)cc5N(C)[C@H]4[C@@](O)(C(=O)NC(Cc4c[nH]c5ccccc45)C(=O)OC)[C@@H]1O)[C@@H]32 (some centres undefined) | > 100 | > 100 | > 100 | > 100 | 21 | > 100 | > 100 | 91.3 | > 100 | > 100 | > 100 | > 100 | 90.9 | > 100 | > 100 | > 100 | > 100 | > 100 | > 100 | > 100 |
| CCCN(CCC)C(=O)c1c(N2CCN(C)CC2)c2cccnc2n2c(C)cnc12 | > 100 | > 100 | > 100 | > 100 | > 100 | > 100 | > 100 | > 100 | > 100 | > 100 | > 100 | > 100 | > 100 | > 100 | > 100 | > 100 | > 100 | > 100 | 68.1 | > 100 |
| C(=N\NC1=NCCN1)/c1ccc2ccccc2c1 | 26.3 | 29.5 | 33.7 | 28 | 20.4 | 50.8 | 28.9 | 34.5 | 43.3 | 30.4 | 24.6 | 32.6 | 26.7 | 28.3 | 35.3 | 35 | 47.6 | 39.4 |  | 29.8 |
| CC(NNC(=O)c1ccncc1)c1cccc(C(F)(F)F)c1 (centres undefined) | > 100 | > 100 | > 100 | > 100 | > 100 | > 100 | > 100 | > 100 | > 100 | > 100 | > 100 | > 100 | > 100 | > 100 | > 100 | > 100 | > 100 | > 100 |  | > 100 |
| COc1ccc2c(c1)/c(=C/C#N)c1c3ccccc3[n+](C)n21 | > 70.1 | 16.2 | 32 | 47.3 | 8.33 | 16.5 | 12.5 | > 48.3 | 50.4 | 10.6 | 31 | > 69.8 | 28.6 | 14.3 | 64.4 | > 100 | 30.5 | 11.8 | 51.5 | 40.8 |
| O=c1[nH]cnc2c1cnn2Cc1cnnn1COCCO | > 100 | > 100 | > 100 | > 100 | > 100 | > 100 | > 100 | > 100 | > 100 | > 100 | > 100 | > 100 | > 100 | > 100 | > 100 | > 100 | > 100 | > 100 | > 100 | > 100 |
| COc1ccc(N2C(=O)/C(=C/c3ccc(N(CCC#N)CCC#N)cc3)N=C2c2ccccc2)cc1 | > 100 | > 100 | > 100 | > 100 | > 100 | > 100 | > 100 | > 100 | > 100 | > 100 | > 100 | > 100 | > 100 | > 100 | > 100 | > 100 | > 100 | > 100 | > 100 | > 100 |
| N#CC1=C(N)N(/N=C/c2ccco2)C(c2ccco2)C1(C#N)C#N (centres undefined) | 33.1 | 56.2 | 30.2 | 37.9 | 28.9 | 47.3 | 25.3 | 7.69 | 97.2 | 32.2 | 30 | 85.1 | 28.2 | 43.4 | 38.6 | 41.6 | 79.7 | 48.9 | 39.2 | 36.1 |
| COC(=O)C1(Cc2ccccc2)Cc2cc3c(cc2C1O)CCC3 (centres undefined) | 28.9 | 59 | 31.9 | 31.3 | 48.1 | 50.4 | 31.8 | > 100 | 34.7 | 31.6 | 32.1 | 67.6 | 34.7 | 30.7 | 38.1 | 65.4 | > 100 | 36.7 |  |  |
| Nc1ccn(C2CCC(COP(=O)(O)OCC(O)COP(=O)(O)OCC3OC(n4cc(F)c(=O)[nH]c4=O)CC3O)O2)c(=O)n1 (centres undefined) | > 100 | > 100 | > 100 | > 100 | > 100 | > 100 | > 100 | > 100 | > 100 | > 100 | > 100 | > 100 | > 100 | > 100 | > 100 | > 100 | > 100 | > 100 | > 100 | > 100 |
| COc1cccc(OC)c1NC(=O)C(=O)Nn1c(NNC(=O)c2ccncc2)nc2ccccc2c1=O | > 100 | > 100 | > 100 | > 100 |  | > 100 | > 100 | > 100 | > 100 | > 100 | > 100 | > 100 | > 100 | > 100 | > 100 | > 100 | > 100 | > 100 | > 100 | > 100 |
